For series [1], the target named is T1, human SUMO1 (Homo sapiens, UniProt P63165).
T1 construct: encoding amino acids 1–97 of mature human SUMO1; host or cells: E. coli BL21 Rosetta (DE3)
Description: Surface plasmon resonance (SPR) primary screen.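 For all read-outs here: recombinant human SUMO1 amine-coupled to a sensor chip, blank activated and quenched reference flow cell, flavonoids injected 2 min then 1 min dissociation.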 The format is binding. The settings on record: for SPR Screens 1° / %RUmax: 500 μM flavonoid in DMSO; for SPR Screens 1°: cut-off of %RUmax of ~15; for %RUmax: SPR primary screen, (Mean RU/RUmax)*100; for interaction in SPR primary screen: 500 μM, %RUmax above threshold of ~15%.

The target in series [2] is T1, human SUMO1. Nature of the series: Differential scanning fluorimetry (DSF) thermal shift. Format: binding. Also on record: key to DSF Tm SUMO1 + Flavonoid (class): UF: unfolded protein; ND: melting curve could not be determined. To be noted: 2 μM SUMO1, 300 μM flavonoid; for DSF Tm SUMO1 + Flavonoid: mean and SEM, n = 5, SUMO1 + DMSO 59.63 ± 0.03.
Series [3] concerns the target T1, human SUMO1. Description: SPR secondary screen / dose-dependent binding. Set-up: key to SPR Screens 2°: ✓: dose-dependent saturation kinetics; ×: no indication of saturation kinetics. The settings on record: for saturation binding in SPR secondary screen: Fig 2A-H; for SPR Screens 2°: five concentrations 31.25-500 μM; for pKd: one-site hyperbola fit, 31.25-500 μM flavonoid, Fig 2A-C, read-out: Kd (SPR secondary screen).

Series [4] is described as follows: Precipitation in NMR samples. Format: physicochemical. To be noted: at 400 μM, dissolved in DMSO-d6, NMR sample. How it is done:
All NMR experiments for 2D ^1H-^15N HSQC spectra were performed at 17°C on a Varian VNMR 500 MHz spectrometer equipped with a 5mm cryogenic triple resonance probe. Complex points 1024 × 128 and spectral widths of 14 × 38 ppm were used to record all the spectra. […] DMSO-d6 used as a cosolvent caused a slight shift (< ~0.8ppm) of resonance peaks. Therefore resonance assignments for ^15N-labeled SUMO1 residues were compared to the DMSO control treatment and normalized by a common factor. […] The resonance peak assignments were performed using data deposited in the Biological Resonance Data Bank (BMRB) under 25576 as reference. Chemical shift changes were characterized by calculating a weighted chemical shift difference as previously described. […] The chemical shift perturbation data from this work are deposited under BMRB ID 50128.

The target of series [5] is T1, human SUMO1. Description: Native-PAGE mobility shift. Format: binding. To be noted: SUMO1 ~40 μM, 300 μM flavonoid. How it is done: Recombinantly purified proteins (Saccharomyces cerevisiae SMT3, Saccharomyces cerevisiae Ulp1, and human SUMO1) were incubated with flavonoids (or DMSO vehicle control) for 30 min to 1 hr at 4°C. Samples were loaded onto 4–20% or 7.5% Mini-PROTEAN TGX Precast Protein Gels (Bio-Rad, Hercules, CA) and were run […] at 95 V for 4 hr 30 min at 4°C using a standard SDS-free loading buffer (pH 8.0) and Tris-glycine running buffer (pH 8.3). Immediately after electrophoresis, the gel was imaged to track migration of bright yellow flavonoid. Following this step, the gel was stained with Bio-Safe Coomassie (Bio-Rad, Hercules, CA) to detect the proteins.

Each structure is given as a SMILES string. pKd: −log10 of the molar value. Where “and” joins values, the source holds several entries; their conditions need not be identical. Equal values may be shown once.

T1 sequence (P63165 1-97): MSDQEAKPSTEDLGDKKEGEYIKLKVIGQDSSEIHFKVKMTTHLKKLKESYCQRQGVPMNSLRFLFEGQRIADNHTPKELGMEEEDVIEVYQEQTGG

On to `COc1cc(O)c(Cc2ccccc2O)c(O)c1C(=O)/C=C/c1ccccc1` [C-benzylated chalcone], for which, in series [1], the “SPR Screens 1°” value is reported as “× (low or no binding activity)” and the “%RUmax” value is -5.3%.
In the case of `C[C@@H]1O[C@@H](O[C@H]2[C@H](Oc3cc(O)c4c(c3)O[C@H](c3ccc(O)cc3)CC4=O)O[C@H](CO)[C@@H](O)[C@@H]2O)[C@H](O)[C@H](O)[C@H]1O` [Naringin], in series [1], the “SPR Screens 1°” value is listed as “× (low or no binding activity)” and the “%RUmax” value is recorded as 5.4%. For the same molecule, the “DSF Tm SUMO1 + Flavonoid” value in series [2] worked out at 58.93 ± 0.02 °C.
For `O=c1c(O)c(-c2ccc(O)c(O)c2)oc2cc(O)cc(O)c12` [Quercetin, 3,3',4',5,7-pentahydroxyflavone], in series [1], the “SPR Screens 1°” value is listed as “✓ (%RUmax with binding activity above cut-off)”, the “interaction in SPR primary screen” value was “interacted with SUMO1 in the primary screen” and the “%RUmax” value is reported as 14.5%. In series [3], the “saturation binding in SPR secondary screen” value (“saturation binding” for short) is reported as “exhibited binding that approached saturation”; the “SPR Screens 2°” value is given as “✓”; the negative logarithm of the Kd (pKd) was 4.38 and ~4.38. Also, in series [2], the “DSF Tm SUMO1 + Flavonoid (class)” value is recorded as “UF” and the “effect on DSF thermogram / thermal stability of SUMO1” value is “cause unfolding of human SUMO1”. Further, the “precipitation in NMR sample” value in series [4] is reported as “Precipitation”.
As for `O=c1c(-c2ccc(O)c(O)c2)coc2cc(O)ccc12` [3’,4’,7-Trihydroxy-isoflavone, 3’,4’,7-Trihydroxyisoflavone], in series [1], the “SPR Screens 1°” value is “✓ (%RUmax with binding activity above cut-off)”, the “interaction in SPR primary screen” value is reported as “interacted with SUMO1 in the primary screen” and the “%RUmax” value turned out to be 48.0%. Also, in series [3], the “saturation binding” value is on record as “failed to exhibit saturation binding” and the “SPR Screens 2°” value is “×”. In series [2], the “effect on DSF thermogram / thermal stability of SUMO1” value is “significant thermal destabilization or unfolding” and the “DSF Tm SUMO1 + Flavonoid” value was determined as 33.28 ± 0.15 °C.
Turning to `C[C@@H]1O[C@@H](O[C@H]2[C@H](Oc3cc(O)c(C(=O)CCc4ccc(O)cc4)c(O)c3)O[C@H](CO)[C@@H](O)[C@@H]2O)[C@H](O)[C@H](O)[C@H]1O` [Naringin dihydrochalcone], in series [1], the “SPR Screens 1°” value is “× (low or no binding activity)” and the “%RUmax” value was 8.5%. The “DSF Tm SUMO1 + Flavonoid” value in series [2] came out at 59.94 ± 0.07 °C.
With `O=c1c(O[C@@H]2O[C@H](CO)[C@@H](O)[C@H](O)[C@H]2O)c(-c2ccc(O)c(O)c2)oc2cc(O)cc(O)c12` [Quercetin 3-β-D-glucoside], in series [1], the “SPR Screens 1°” value is “✓ (%RUmax with binding activity above cut-off)”, the “interaction in SPR primary screen” value is given as “interacted with SUMO1 in the primary screen” and the “%RUmax” value was 21.3%. Further, in series [3], the “saturation binding” value is “failed to exhibit saturation binding” and the “SPR Screens 2°” value is recorded as “×”. In addition, the “DSF Tm SUMO1 + Flavonoid” value in series [2] worked out at 56.95 ± 0.28 °C.
Take `C[C@@H]1O[C@@H](Oc2c(-c3ccc(O)c(O)c3)oc3cc(O)cc(O)c3c2=O)[C@H](O)[C@H](O)[C@H]1O` [Quercitrin]: in series [1], the “SPR Screens 1°” value is “× (low or no binding activity)” and the “%RUmax” value came out at 14.2%. In addition, in series [2], the “effect on DSF thermogram / thermal stability of SUMO1” value is given as “significant thermal destabilization or unfolding” and the “DSF Tm SUMO1 + Flavonoid” value is 54.28 ± 0.19 °C.
With `Cc1c(O)cc2oc(-c3ccc(O)c(O)c3)c(O)c(=O)c2c1O` [Pinoquercetin], in series [1], the “SPR Screens 1°” value is given as “✓ (%RUmax with binding activity above cut-off)”, the “interaction in SPR primary screen” value was “interacted with SUMO1 in the primary screen” and the “%RUmax” value came to 143.4%. In series [3], the “saturation binding” value is listed as “failed to exhibit saturation binding” and the “SPR Screens 2°” value is “×”.
With `O=c1cc(-c2ccc(O)c(O)c2)oc2cc(O)cc(O)c12` [Luteolin], in series [1], the “SPR Screens 1°” value is “× (low or no binding activity)” and the “%RUmax” value is -47.8%. Besides, in series [2], the “effect on DSF thermogram / thermal stability of SUMO1” value is “significant thermal destabilization or unfolding” and the “DSF Tm SUMO1 + Flavonoid” value worked out at 51.89 ± 0.68 °C. Also, the “electrophoretic mobility shift of human SUMO1” value in series [5] is on record as “unable to detect a similar gel shift”.
Take `O=C1C[C@@H](c2ccc(O)cc2)Oc2cc(O)cc(O)c21` [Naringenin]: in series [1], the “SPR Screens 1°” value is “✓ (%RUmax with binding activity above cut-off)”, the “interaction in SPR primary screen” value was “interacted with SUMO1 in the primary screen” and the “%RUmax” value was 27.5%. Moreover, in series [3], the “saturation binding” value is recorded as “failed to exhibit saturation binding” and the “SPR Screens 2°” value is “×”. Moreover, in series [2], the “DSF Tm SUMO1 + Flavonoid” value came to 59.24 ± 0.13 °C.
`O=c1c(O)c(-c2ccc(O)cc2)oc2cc(O)cc(O)c12` [Kaempferol, 3,4′,5,7-tetrahydroxyflavone]: in series [1], the “SPR Screens 1°” value is “× (low or no binding activity)” and the “%RUmax” value is given as 12.6%. In series [2], the “effect on DSF thermogram / thermal stability of SUMO1” value was “little or no effect” and the “DSF Tm SUMO1 + Flavonoid” value came to 60.28 ± 0.09 °C. Also, the “precipitation in NMR sample” value in series [4] is on record as “Precipitation”.
With `O=C(/C=C/c1ccc(O)cc1)c1ccc(O)cc1O` [Isoliquiritigenin], the “interaction in SPR primary screen” value in series [1] is given as “interacted with SUMO1 in the primary screen”. In addition, in series [3], the “SPR Screens 2°” value is reported as “✓” and the pKd was roughly 3.71.
Consider `O=C(/C=C/c1ccc(O)c(O)c1)c1ccc(O)cc1O` [Butein], for which, in series [1], the “SPR Screens 1°” value is recorded as “✓ (%RUmax with binding activity above cut-off)”, the “interaction in SPR primary screen” value is listed as “interacted with SUMO1 in the primary screen” and the “%RUmax” value is 74.2%. In series [3], the “saturation binding” value is “failed to exhibit saturation binding” and the “SPR Screens 2°” value was “×”.

A word on the pKd: it is −log10 of the Kd, conventionally taken in molar units.
